Assay results as given in publication PMC4319009, “Small Molecules Dorsomorphin and LDN-193189 Inhibit Myostatin/GDF8 Signaling and Promote Functional Myoblast Differentiation” (The Journal of Biological Chemistry, 2014).

Columns and labels:
ActRIIA = target: T1, ActRIIA (Homo sapiens, UniProt P27037); assay: isothermal titration calorimetry; format: binding
T1 construct: gene ACVR2A; kinase domain residues 191-488, N-terminal His6 removed by TEV protease, vector pFB-LIC-Bse, baculovirus Sf9; two molecules per asymmetric unit
From the text: isothermal titration calorimetry on ActRIIA

ActRIIB = target: T2, ActRIIB (Homo sapiens, UniProt Q13705); assay: isothermal titration calorimetry; format: binding
T2 construct: gene ACVR2B; kinase domain residues 190-487, N-terminal His6 removed by TEV protease, vector pFB-LIC-Bse, baculovirus Sf9
From the text: isothermal titration calorimetry on ActRIIB

T1 sequence (P27037 191-488): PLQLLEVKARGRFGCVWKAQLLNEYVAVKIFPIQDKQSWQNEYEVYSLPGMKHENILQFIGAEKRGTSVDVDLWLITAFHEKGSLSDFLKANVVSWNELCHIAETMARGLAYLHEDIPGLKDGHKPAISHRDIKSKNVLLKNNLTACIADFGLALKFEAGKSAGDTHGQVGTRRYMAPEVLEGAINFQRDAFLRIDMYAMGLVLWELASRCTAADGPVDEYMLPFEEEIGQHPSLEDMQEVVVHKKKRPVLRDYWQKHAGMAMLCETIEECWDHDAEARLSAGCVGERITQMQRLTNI
T2 sequence (Q13705 190-487): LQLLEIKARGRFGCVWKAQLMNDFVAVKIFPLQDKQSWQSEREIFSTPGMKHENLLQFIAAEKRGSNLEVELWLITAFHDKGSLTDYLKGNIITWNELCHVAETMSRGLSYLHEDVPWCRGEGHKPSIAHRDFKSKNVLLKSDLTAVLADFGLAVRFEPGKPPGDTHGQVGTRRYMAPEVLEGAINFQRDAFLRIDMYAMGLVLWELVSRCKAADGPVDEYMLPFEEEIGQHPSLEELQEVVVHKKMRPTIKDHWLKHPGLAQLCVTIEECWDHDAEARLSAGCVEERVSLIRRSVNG

c1cc(-c2cnn3cc(-c4ccc(OCCN5CCCCC5)cc4)cnc23)ccn1 [Dorsomorphin]
Kd (ActRIIA): 0.058 µM
Kd (ActRIIB): 0.03 µM

c1ccc2c(-c3cnn4cc(-c5ccc(N6CCNCC6)cc5)cnc34)ccnc2c1 [LDN-193189]
Kd (ActRIIA): 0.014 µM
